# From ChEMBL document CHEMBL3132808, “Exceptionally strong intermolecular association in hydrophobic DNA minor groove binders and their potential therapeutic consequences” (Medchemcomm, 2013)
# The source made the active and inactive calls. The calls are words filed in the database; no cut-off is given here.
# System: Nucleic Acid
# Assay: Binding affinity to […] DNA oligomer d(CGATATATCG)2 (unknown origin) minor groove assessed as association constant by NMR
# Format: nucleic-acid assay
row,Ka,SMILES
1,inactive,CC(=O)Nc1cn(C)c(C(=O)Nc2cc(C(=O)Nc3nc(C(=O)NCCCN(C)C)c(C(C)C)s3)n(C)c2)n1
2,inactive,CC(C)c1sc(NC(=O)c2cc(NC(=O)c3cc(NC=O)cn3C)cn2C)nc1C(=O)NCCCN(C)C
3,inactive,COc1cccc(/C=C/c2ccc(C(=O)Nc3cc(C(=O)NCCN4CCOCC4)n(C)c3)cc2)c1
4,6.1 ×10⁴ /M,CC(C)c1sc(NC(=O)c2cc(NC(=O)c3cc(NC(=O)c4cccnc4)cn3C)cn2C)nc1C(=O)NCCCN(C)C
